Like-named read-outs stand apart in the source and are kept apart here. Blank lines part the entries; values can stand above or below the compound they belong to.
What was measured:
Assay type in all cases: cell-based
Burkholderia cepacia = test: Colistin MIC / MIC shift with compound at 10 μM (isolate panel, Table 19); conditions: Burkholderia cepacia 547, Colistin-R; for Colistin & Cmpd MIC shift / Colistin MIC with compound: compound at 10 μM
Serratia marcescens = test: as above; conditions: Serratia marcescens 6147, Colistin-R; for Colistin & Cmpd MIC shift / Colistin MIC with compound: compound at 10 μM
Providencia stuartii = test: as above; conditions: Providencia stuartii 6644, Colistin-R; for Colistin & Cmpd MIC shift / Colistin MIC with compound: compound at 10 μM
Proteus vulgaris = test: as above; conditions: Proteus vulgaris 6240, Colistin-R; for Colistin & Cmpd MIC shift / Colistin MIC with compound: compound at 10 μM
[1] = test system: Acinetobacter baumannii (Ab23); test: MIC shift assay of antibiotics (broth microdilution); conditions: for Colistin MIC Shift: A. baumannii (MDR Ab), compd. concentration 4.0 μM, colistin MIC 0.5-1.0 μg/mL; for Colistin & Cmpd MIC shift / Colistin MIC with compound: compound at 10 μM; for colistin MIC shift, Ab23 at (compd concentration): fold shift of colistin MIC, nc = no changeover or no shift
In short: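 Following a modified Wiegand broth microdilution protocol, colistin serial dilutions with or without test compound were set up in round-bottom 96-well plates and inoculated with A. baumannii cells to a starting OD600 of 0.005. Plates were shaken at 37° C. for 18 to 20 h and read at OD600. The fold shift was calculated from colistin MIC alone versus colistin MIC with test compound, with growth and medium-only blank controls.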

Klebsiella pneumoniae = test: as above; conditions: for Colistin & Cmpd MIC shift / Colistin MIC with compound: compound at 10 μM
Description: (§1) Minimum inhibitory concentration (MIC) shift assays were performed to determine if the test compounds could alter the MIC of existing antibacterial drugs (e.g., ciprofloxacin and colistin) for E. coli, Acinetobacter baumannii, Klebsiella pneumoniae, Pseudomonas aeruginosa, and Enterobacter cloacae. The MIC shift assay is based on the standard broth microdilution MIC determination protocol of Wiegand et al, Nat Protoc. 3(2):163-75 (2008), with slight modifications that allow for the screening of up to seven test compounds in a single plate.
(§2) On the day before an assay, bacteria were grown overnight in cation-adjusted Mueller Hinton broth (CAMHB; Teknova, Hollister, Calif.) at 37° C. in an orbital shaker and sub-cultured at a 1:200 dilution the following morning. The cells were grown to OD600=0.5 to 0.8 and then diluted to OD600=0.01. From a serial dilution of each antibiotic at (50 μL of 2× concentrated stock solutions) several concentrations were added to the wells of a sterile, transparent round-bottom 96-well plate (Phenix Research Products, Candler, N.C.), and diluted cells (50 μL) were added to the plates for a starting OD600 of 0.005. Then, a test compound (2.5 μL) was added to each well to give a final concentration of 4 or 10 μM. A row of wells lacking test compound but containing the antibiotic was used to determine the MIC of that antibiotic alone. A column of wells lacking both antibiotic and test compound served as a growth control, and an additional column containing only CAMHB was included as a sterile blank control.
(§3) The plates were incubated for 18 to 20 h at 37° C. in an orbital shaker, and the cell density (OD600) was determined the following day in a microplate reader (PolarStar Optima, BMG Labtech). The MIC shift was determined by comparing the MIC of the antibiotic alone to the MIC of the antibiotic plus test compound.

Pseudomonas aeruginosa = test: as above; conditions: for Colistin & Cmpd MIC shift / Colistin MIC with compound: compound at 10 μM
Description: as §1, §2, §3

E. coli = test: as above; conditions: for Colistin MIC Shift: E. coli (SCR1), compd. concentration 4.0 μM, colistin MIC 0.5-1.0 μg/mL; for MIC, agent alone / Colistin & Cmpd MIC shift / Colistin MIC with compound: Escherichia coli ATCC 25922 (MMX 102), QC, Colistin-S; for Colistin & Cmpd MIC shift / Colistin MIC with compound: compound at 10 μM
Description: as §1, §2, §3

Staphylococcus aureus = test: Colistin MIC / MIC shift with compound at 10 μM (isolate panel, Table 19); conditions: for Colistin & Cmpd MIC shift / Colistin MIC with compound: compound at 10 μM
[2] = Acinetobacter baumannii ATCC 19606 (MMX 1630), Colistin-S
[3] = Acinetobacter baumannii Ab23, Colistin-R
[4] = Klebsiella pneumoniae 2237, Colistin-R
[5] = Klebsiella pneumoniae ATCC 13883 (MMX 214), Colistin-S
[6] = Pseudomonas aeruginosa 1582, Colistin-I
[7] = Pseudomonas aeruginosa 6977, Colistin-R
[8] = Pseudomonas aeruginosa ATCC 27853 (MMX 103), QC, Colistin-S
[9] = Staphylococcus aureus ATCC 43300 (MMX 5999), MRSA

SMILES: Clc1ccc2[nH]cc(-c3ccc(Cl)c(Cl)c3)c2c1 [compound 429]
MIC, agent alone (Burkholderia cepacia): > 32 µg/mL
Colistin & Cmpd MIC shift (Burkholderia cepacia): 4
Colistin MIC with compound (Burkholderia cepacia): > 16 µg/mL
MIC, agent alone (Serratia marcescens): > 32 µg/mL
Colistin & Cmpd MIC shift (Serratia marcescens): 256
Colistin MIC with compound (Serratia marcescens): 0.25 µg/mL
MIC, agent alone (Providencia stuartii): > 32 µg/mL
Colistin & Cmpd MIC shift (Providencia stuartii): 4
Colistin MIC with compound (Providencia stuartii): 16 µg/mL
MIC, agent alone (Proteus vulgaris): > 32 µg/mL
Colistin & Cmpd MIC shift (Proteus vulgaris): 1067
Colistin MIC with compound (Proteus vulgaris): 0.06 µg/mL
Colistin MIC Shift [1]: 2x
MIC, agent alone [1, 2]: > 32 µg/mL
Colistin & Cmpd MIC shift [1, 2]: 8
Colistin MIC with compound [1, 2]: 0.03 µg/mL
MIC, agent alone [1, 3]: > 32 µg/mL
Colistin & Cmpd MIC shift [1, 3]: 2133
Colistin MIC with compound [1, 3]: 0.03 µg/mL
MIC Shift of Ciprofloxacin ([1]; Compd. No. 429 concentration 8 μM, antibiotic Ciprofloxacin, A. baumannii (Ab23)): ≧32x
MIC Shift of Levofloxacin ([1]; Compd. No. 429 concentration 8 μM, antibiotic Levofloxacin, A. baumannii (Ab23)): ≧64x
MIC Shift of Meropenem ([1]; Compd. No. 429 concentration 8 μM, antibiotic Meropenem, A. baumannii (Ab23)): ≧16x
MIC Shift of Tobramycin ([1]; Compd. No. 429 concentration 8 μM, antibiotic Tobramycin, A. baumannii (Ab23)): ≧16x
colistin MIC shift, Ab23 at (compd concentration) ([1]; compound concentration 1 μM): 4x (1 μM);
colistin MIC shift, Ab23 at (compd concentration) ([1]; compound concentration 2 μM): ≧16x (2μM)
MIC, agent alone (Klebsiella pneumoniae; [4]): > 32 µg/mL
Colistin & Cmpd MIC shift (Klebsiella pneumoniae; [4]): 128
Colistin MIC with compound (Klebsiella pneumoniae; [4]): 0.25 µg/mL
MIC, agent alone (Klebsiella pneumoniae; [5]): > 32 µg/mL
Colistin & Cmpd MIC shift (Klebsiella pneumoniae; [5]): 4
Colistin MIC with compound (Klebsiella pneumoniae; [5]): 0.03 µg/mL
MIC, agent alone (Pseudomonas aeruginosa; [6]): > 32 µg/mL
Colistin & Cmpd MIC shift (Pseudomonas aeruginosa; [6]): 16
Colistin MIC with compound (Pseudomonas aeruginosa; [6]): 0.25 µg/mL
MIC, agent alone (Pseudomonas aeruginosa; [7]): > 32 µg/mL
Colistin & Cmpd MIC shift (Pseudomonas aeruginosa; [7]): 64
Colistin MIC with compound (Pseudomonas aeruginosa; [7]): 1 µg/mL
MIC, agent alone (Pseudomonas aeruginosa; [8]): > 32 µg/mL
Colistin & Cmpd MIC shift (Pseudomonas aeruginosa; [8]): 2
Colistin MIC with compound (Pseudomonas aeruginosa; [8]): 0.12 µg/mL
Colistin MIC Shift (E. coli): 4x
MIC, agent alone (E. coli): > 32 µg/mL
Colistin & Cmpd MIC shift (E. coli): 8
Colistin MIC with compound (E. coli): 0.015 µg/mL
MIC, agent alone (Staphylococcus aureus): 2 µg/mL
MIC, agent alone (Staphylococcus aureus; [9]): 2 µg/mL
Colistin & Cmpd MIC shift (Staphylococcus aureus; [9]): 4267
Colistin MIC with compound (Staphylococcus aureus; [9]): ≤ 0.015 µg/mL
Colistin & Cmpd MIC shift (Staphylococcus aureus): 4267
Colistin MIC with compound (Staphylococcus aureus): ≤ 0.015 µg/mL

MIC, agent alone (Burkholderia cepacia): > 32 µg/mL
Colistin & Cmpd MIC shift (Burkholderia cepacia): 4
Colistin MIC with compound (Burkholderia cepacia): > 16 µg/mL
MIC, agent alone (Serratia marcescens): > 32 µg/mL
Colistin & Cmpd MIC shift (Serratia marcescens): 256
Colistin MIC with compound (Serratia marcescens): 0.25 µg/mL
MIC, agent alone (Providencia stuartii): > 32 µg/mL
Colistin & Cmpd MIC shift (Providencia stuartii): 4
Colistin MIC with compound (Providencia stuartii): > 16 µg/mL
MIC, agent alone (Proteus vulgaris): > 32 µg/mL
Colistin & Cmpd MIC shift (Proteus vulgaris): 4
Colistin MIC with compound (Proteus vulgaris): > 16 µg/mL
Colistin MIC Shift [1]: 8x
MIC, agent alone [1, 2]: 16 µg/mL
Colistin & Cmpd MIC shift [1, 2]: 17
Colistin MIC with compound [1, 2]: 0.015 µg/mL
MIC, agent alone [1, 3]: 8 µg/mL
Colistin & Cmpd MIC shift [1, 3]: 4267
Colistin MIC with compound [1, 3]: 0.015 µg/mL
colistin MIC shift, Ab23 at (compd concentration) ([1]; compound concentration 2 μM): 8-16x
MIC, agent alone (Klebsiella pneumoniae; [4]): > 32 µg/mL
Colistin & Cmpd MIC shift (Klebsiella pneumoniae; [4]): 128
Colistin MIC with compound (Klebsiella pneumoniae; [4]): 0.25 µg/mL
MIC, agent alone (Klebsiella pneumoniae; [5]): > 32 µg/mL
Colistin & Cmpd MIC shift (Klebsiella pneumoniae; [5]): 8
Colistin MIC with compound (Klebsiella pneumoniae; [5]): 0.015 µg/mL
MIC, agent alone (Pseudomonas aeruginosa; [6]): > 32 µg/mL
Colistin & Cmpd MIC shift (Pseudomonas aeruginosa; [6]): 2
Colistin MIC with compound (Pseudomonas aeruginosa; [6]): 0.5 µg/mL
MIC, agent alone (Pseudomonas aeruginosa; [7]): > 32 µg/mL
Colistin & Cmpd MIC shift (Pseudomonas aeruginosa; [7]): 64
Colistin MIC with compound (Pseudomonas aeruginosa; [7]): 1 µg/mL
MIC, agent alone (Pseudomonas aeruginosa; [8]): > 32 µg/mL
Colistin & Cmpd MIC shift (Pseudomonas aeruginosa; [8]): 4
Colistin MIC with compound (Pseudomonas aeruginosa; [8]): 0.06 µg/mL
Colistin MIC Shift (E. coli): 16x
MIC, agent alone (E. coli): > 32 µg/mL
Colistin & Cmpd MIC shift (E. coli): 8
Colistin MIC with compound (E. coli): 0.015 µg/mL
MIC, agent alone (Staphylococcus aureus): 1 µg/mL
MIC, agent alone (Staphylococcus aureus; [9]): 1 µg/mL
Colistin & Cmpd MIC shift (Staphylococcus aureus; [9]): 4267
Colistin MIC with compound (Staphylococcus aureus; [9]): ≤ 0.015 µg/mL
Colistin & Cmpd MIC shift (Staphylococcus aureus): 4267
Colistin MIC with compound (Staphylococcus aureus): ≤ 0.015 µg/mL
SMILES: Cc1cccc2c(NCCCN(C)C)nc(-c3cc(-c4ccccc4)cc(C(F)(F)F)c3)nc12 [compound 343]

— patent US20160168140A1, “HETEROCYCLIC COMPOUNDS AS ANTIBIOTIC POTENTIATORS” (priority 2014, published 2016)
